Assay results taken from paper PMC12679550 (ACS Chemical Neuroscience, 2025).
Where two headings read alike, the source gives them in different places.

Key:
μ-opioid receptors = target: T1, μ-opioid receptors (Homo sapiens, UniProt P35372); assay: Eurofins Cerep radioligand binding screen; settings: 10 μM
T1 construct: Eurofins Cerep; host or cells: cell membrane homogenates
Description: (§1) The compounds were screened at each target once, in duplicate, at 100 nM and 10 μM. […] The assay was valid if the reliability criteria, K i or IC50 values within 1/2 Log of historical values, were met. Radioligand binding assay methods were as previously described with only minor modifications , (see table in Supplementary Figure S4 for radioligands, protein sources, and assay test conditions). Briefly, cell membrane homogenates were incubated with either an antagonist or agonist radioligand in the absence or presence of the test compound in a buffer. A specific unlabeled agonist or antagonist at the target determined nonspecific binding. Following incubation, the samples were filtered rapidly under vacuum through glass fiber filters presoaked in a buffer and rinsed several times with an ice-cold buffer using a 48-sample or 96-sample cell harvester. Using a scintillation cocktail, the filters were counted for radioactivity in a scintillation counter. Compound binding was calculated as a percent inhibition of the binding of the radioactively labeled ligand specific for each target. Preparatory methods for enzyme inhibition assays were similar to radioligand binding assays. These assays involved using a known substrate, stimulus, and/or tracer, and detection methods included LANCE, fluorimetry, photometry, luminescence, or scintillation counting (see table in Supplementary Figure S4). Results of the screening assays showing an inhibition or stimulation higher than 50% were designated “hits” and considered to represent significant effects of the test compounds.

α2BR = target: T2, α2BR (Homo sapiens, UniProt P18089); assay: Eurofins Cerep radioligand binding screen; settings: 10 μM; also previously reported
T2 construct: Eurofins Cerep; host or cells: cell membrane homogenates
T2 sequence (P18089 whole entry): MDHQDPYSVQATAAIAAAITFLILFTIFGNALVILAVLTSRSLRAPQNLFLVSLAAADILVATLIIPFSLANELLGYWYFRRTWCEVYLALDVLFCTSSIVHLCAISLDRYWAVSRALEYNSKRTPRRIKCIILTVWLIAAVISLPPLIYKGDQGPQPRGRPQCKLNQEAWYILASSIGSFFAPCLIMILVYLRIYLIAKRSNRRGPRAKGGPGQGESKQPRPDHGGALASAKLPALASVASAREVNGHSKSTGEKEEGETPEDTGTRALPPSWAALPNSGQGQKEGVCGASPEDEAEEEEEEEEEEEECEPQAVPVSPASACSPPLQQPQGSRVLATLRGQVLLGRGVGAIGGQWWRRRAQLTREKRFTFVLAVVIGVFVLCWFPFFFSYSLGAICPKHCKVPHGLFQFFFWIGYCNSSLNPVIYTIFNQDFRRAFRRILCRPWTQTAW
Description: as §1

κ-opioid receptors = target: T3, κ-opioid receptors (Homo sapiens, UniProt P41145); assay: Eurofins Cerep radioligand binding screen; settings: 10 μM
T3 construct: Eurofins Cerep; host or cells: cell membrane homogenates
T3 sequence (P41145 whole entry): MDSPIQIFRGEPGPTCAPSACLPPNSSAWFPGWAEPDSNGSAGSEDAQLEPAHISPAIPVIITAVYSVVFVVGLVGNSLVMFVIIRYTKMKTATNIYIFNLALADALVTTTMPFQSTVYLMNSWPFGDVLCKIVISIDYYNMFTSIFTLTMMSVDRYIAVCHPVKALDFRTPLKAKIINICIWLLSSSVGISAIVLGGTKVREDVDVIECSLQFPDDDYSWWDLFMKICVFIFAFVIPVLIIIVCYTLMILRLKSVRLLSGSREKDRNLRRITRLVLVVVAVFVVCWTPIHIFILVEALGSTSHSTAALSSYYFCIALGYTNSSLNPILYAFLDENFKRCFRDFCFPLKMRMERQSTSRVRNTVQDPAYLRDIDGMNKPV
Description: as §1

δ-opioid receptors = target: T4, δ-opioid receptors (Homo sapiens, UniProt P41143); assay: Eurofins Cerep radioligand binding screen; settings: 10 μM
T4 construct: Eurofins Cerep; host or cells: cell membrane homogenates
T4 sequence (P41143 whole entry): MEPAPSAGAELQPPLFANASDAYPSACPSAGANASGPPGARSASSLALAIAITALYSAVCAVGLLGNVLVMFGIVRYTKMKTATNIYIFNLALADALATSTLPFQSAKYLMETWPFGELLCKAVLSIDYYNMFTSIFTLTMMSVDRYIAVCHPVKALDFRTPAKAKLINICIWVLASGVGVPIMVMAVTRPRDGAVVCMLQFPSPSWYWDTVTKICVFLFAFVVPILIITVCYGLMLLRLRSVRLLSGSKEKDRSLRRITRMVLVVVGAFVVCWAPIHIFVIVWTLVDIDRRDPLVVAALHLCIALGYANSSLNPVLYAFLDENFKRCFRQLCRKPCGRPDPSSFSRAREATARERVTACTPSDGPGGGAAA
Description: as §1

α1DR = target: T5, α1DR (Homo sapiens, UniProt P25100); assay: Eurofins Cerep radioligand binding screen; settings: 10 μM
T5 construct: Eurofins Cerep; host or cells: cell membrane homogenates
T5 sequence (P25100 whole entry): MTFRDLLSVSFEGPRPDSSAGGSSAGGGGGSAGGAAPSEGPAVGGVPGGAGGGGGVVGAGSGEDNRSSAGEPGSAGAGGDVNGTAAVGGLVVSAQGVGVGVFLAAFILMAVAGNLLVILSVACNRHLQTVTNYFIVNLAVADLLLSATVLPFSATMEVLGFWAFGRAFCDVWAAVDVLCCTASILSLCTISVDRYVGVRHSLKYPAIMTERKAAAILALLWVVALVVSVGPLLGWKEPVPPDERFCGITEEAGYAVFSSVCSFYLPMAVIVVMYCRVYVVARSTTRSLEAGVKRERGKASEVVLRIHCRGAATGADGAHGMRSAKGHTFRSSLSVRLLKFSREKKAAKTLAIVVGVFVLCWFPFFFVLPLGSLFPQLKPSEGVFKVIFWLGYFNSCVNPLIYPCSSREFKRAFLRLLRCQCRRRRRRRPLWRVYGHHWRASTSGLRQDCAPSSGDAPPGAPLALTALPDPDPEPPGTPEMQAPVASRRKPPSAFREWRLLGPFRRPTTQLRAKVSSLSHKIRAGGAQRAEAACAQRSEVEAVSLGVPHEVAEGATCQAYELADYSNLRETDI
Description: as §1

α1BR = target: T6, α1BR (Homo sapiens, UniProt P35368); assay: Eurofins Cerep radioligand binding screen; settings: 10 μM
T6 construct: Eurofins Cerep; host or cells: cell membrane homogenates
T6 sequence (P35368 whole entry): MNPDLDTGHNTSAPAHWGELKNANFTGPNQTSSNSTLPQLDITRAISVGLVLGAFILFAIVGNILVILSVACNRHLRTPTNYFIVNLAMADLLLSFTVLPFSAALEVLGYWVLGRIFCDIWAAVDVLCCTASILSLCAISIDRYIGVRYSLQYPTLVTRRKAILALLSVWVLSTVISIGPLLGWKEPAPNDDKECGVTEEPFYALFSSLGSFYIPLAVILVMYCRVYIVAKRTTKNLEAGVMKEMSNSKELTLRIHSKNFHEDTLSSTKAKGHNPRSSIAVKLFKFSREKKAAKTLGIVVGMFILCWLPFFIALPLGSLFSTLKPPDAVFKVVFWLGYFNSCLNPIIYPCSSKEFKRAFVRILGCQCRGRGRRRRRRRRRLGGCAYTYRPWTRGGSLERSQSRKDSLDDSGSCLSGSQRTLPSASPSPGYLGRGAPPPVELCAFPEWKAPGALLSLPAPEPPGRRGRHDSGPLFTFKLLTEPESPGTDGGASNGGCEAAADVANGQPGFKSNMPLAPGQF
Description: as §1

any enzyme tested = assay: Eurofins Cerep enzyme inhibition screen, all enzymes tested; type: biochemical; settings: 10 μM
Description: (§2) The compounds were screened at each target once, in duplicate, at 100 nM and 10 μM. […] The assay was valid if the reliability criteria, K i or IC50 values within 1/2 Log of historical values, were met. Radioligand binding assay methods were as previously described with only minor modifications , (see table in Supplementary Figure S4 for radioligands, protein sources, and assay test conditions). Briefly, cell membrane homogenates were incubated with either an antagonist or agonist radioligand in the absence or presence of the test compound in a buffer. A specific unlabeled agonist or antagonist at the target determined nonspecific binding. Following incubation, the samples were filtered rapidly under vacuum through glass fiber filters presoaked in a buffer and rinsed several times with an ice-cold buffer using a 48-sample or 96-sample cell harvester. Using a scintillation cocktail, the filters were counted for radioactivity in a scintillation counter. Compound binding was calculated as a percent inhibition of the binding of the radioactively labeled ligand specific for each target. Preparatory methods for enzyme inhibition assays were similar to radioligand binding assays. These assays involved using a known substrate, stimulus, and/or tracer, and detection methods included LANCE, fluorimetry, photometry, luminescence, or scintillation counting (see table in Supplementary Figure S4). […]

α1AR [1] = target: T7, α1AR (Homo sapiens, UniProt P35348); assay: Eurofins Cerep radioligand binding screen; design: Eurofins Cerep; host or cells: cell membrane homogenates; settings: 10 μM
T7 sequence (P35348 1-466): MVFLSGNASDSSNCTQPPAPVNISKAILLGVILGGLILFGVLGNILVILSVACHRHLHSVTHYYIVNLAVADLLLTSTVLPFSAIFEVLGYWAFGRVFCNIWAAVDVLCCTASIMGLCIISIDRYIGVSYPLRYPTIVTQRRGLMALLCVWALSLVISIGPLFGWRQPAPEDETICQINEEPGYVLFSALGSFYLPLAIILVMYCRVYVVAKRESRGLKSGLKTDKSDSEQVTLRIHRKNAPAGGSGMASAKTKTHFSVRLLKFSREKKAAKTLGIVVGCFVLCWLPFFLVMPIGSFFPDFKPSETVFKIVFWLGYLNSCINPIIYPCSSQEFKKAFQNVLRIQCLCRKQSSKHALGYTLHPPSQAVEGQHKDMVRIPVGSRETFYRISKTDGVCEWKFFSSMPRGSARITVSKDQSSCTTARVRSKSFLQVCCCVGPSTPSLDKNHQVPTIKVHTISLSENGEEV
Description: as §1

α2AR [2] = target: T8, α2AR (Homo sapiens, UniProt P08913); assay: Eurofins Cerep radioligand binding screen; design: Eurofins Cerep; host or cells: cell membrane homogenates; settings: 10 μM; also previously reported
T8 sequence (P08913 1-465): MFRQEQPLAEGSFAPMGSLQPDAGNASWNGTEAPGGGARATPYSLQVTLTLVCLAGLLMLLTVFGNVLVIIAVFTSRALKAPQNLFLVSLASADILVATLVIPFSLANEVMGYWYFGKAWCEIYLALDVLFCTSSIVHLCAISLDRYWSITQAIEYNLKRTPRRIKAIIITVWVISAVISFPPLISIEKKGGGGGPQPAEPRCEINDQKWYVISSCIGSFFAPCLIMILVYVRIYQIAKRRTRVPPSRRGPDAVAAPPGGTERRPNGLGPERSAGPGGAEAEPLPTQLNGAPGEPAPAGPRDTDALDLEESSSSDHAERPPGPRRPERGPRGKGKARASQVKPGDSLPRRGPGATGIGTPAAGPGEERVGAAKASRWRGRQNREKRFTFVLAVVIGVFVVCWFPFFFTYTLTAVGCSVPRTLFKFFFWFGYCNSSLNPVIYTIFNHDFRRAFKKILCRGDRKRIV
Description: as §1

COX2 = target: T9, COX2 (Homo sapiens, UniProt P35354); assay: Eurofins Cerep enzyme inhibition screen; type: biochemical; settings: 10 μM
T9 construct: Eurofins Cerep
T9 sequence (P35354 18-604): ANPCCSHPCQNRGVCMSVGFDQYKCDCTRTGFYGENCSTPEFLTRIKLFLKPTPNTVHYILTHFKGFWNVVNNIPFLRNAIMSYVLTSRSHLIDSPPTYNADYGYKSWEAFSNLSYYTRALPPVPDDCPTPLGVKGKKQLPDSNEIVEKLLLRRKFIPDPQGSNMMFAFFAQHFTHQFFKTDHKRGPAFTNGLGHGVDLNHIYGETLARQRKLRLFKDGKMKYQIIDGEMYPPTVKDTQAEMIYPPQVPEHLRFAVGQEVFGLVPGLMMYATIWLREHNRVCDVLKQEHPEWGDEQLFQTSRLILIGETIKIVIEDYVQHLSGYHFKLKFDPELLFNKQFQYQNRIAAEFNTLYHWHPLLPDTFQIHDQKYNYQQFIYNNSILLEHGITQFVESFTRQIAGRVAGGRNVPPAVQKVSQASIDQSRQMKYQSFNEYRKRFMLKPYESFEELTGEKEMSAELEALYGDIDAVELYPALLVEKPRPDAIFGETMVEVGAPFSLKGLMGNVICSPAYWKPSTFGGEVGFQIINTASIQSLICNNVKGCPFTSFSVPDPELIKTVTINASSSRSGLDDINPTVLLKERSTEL
Description: as §2

serotonin transporter = target: T10, serotonin transporter (Homo sapiens, UniProt P31645); assay: Eurofins Cerep radioligand binding screen; settings: 10 μM
T10 construct: Eurofins Cerep; host or cells: cell membrane homogenates
T10 sequence (P31645 whole entry): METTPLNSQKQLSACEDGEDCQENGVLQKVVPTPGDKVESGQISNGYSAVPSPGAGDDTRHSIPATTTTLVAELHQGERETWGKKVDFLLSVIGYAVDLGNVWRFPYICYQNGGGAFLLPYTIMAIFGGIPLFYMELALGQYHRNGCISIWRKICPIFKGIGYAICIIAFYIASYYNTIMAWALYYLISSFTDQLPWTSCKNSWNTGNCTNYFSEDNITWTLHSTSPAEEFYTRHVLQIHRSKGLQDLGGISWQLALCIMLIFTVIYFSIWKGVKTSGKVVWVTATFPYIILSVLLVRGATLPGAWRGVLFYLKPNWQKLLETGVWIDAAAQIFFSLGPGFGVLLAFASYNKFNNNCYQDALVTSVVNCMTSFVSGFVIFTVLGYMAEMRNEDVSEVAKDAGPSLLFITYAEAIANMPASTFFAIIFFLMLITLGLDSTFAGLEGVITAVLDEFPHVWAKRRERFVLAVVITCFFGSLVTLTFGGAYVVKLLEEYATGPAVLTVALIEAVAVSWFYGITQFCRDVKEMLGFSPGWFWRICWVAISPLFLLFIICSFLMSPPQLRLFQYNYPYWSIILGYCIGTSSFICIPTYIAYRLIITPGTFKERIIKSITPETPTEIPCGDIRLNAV
Description: as §1

[3] = tested on: voltage-gated sodium channels; assay: Eurofins Cerep radioligand binding screen; settings: 10 μM
Description: as §1

human α2Rs = settings: in vitro, literature, cited from earlier work
β1 and β2 adrenoceptors = settings: in vitro; literature; read-out: Affinity (Kd) at β1 and β2 adrenoceptors; cited from earlier work
human α1Rs = settings: in vitro, literature, cited from earlier work
[4] = tested on: pERK in nontransfected HEK293 cells; assay: ERK phosphorylation in nontransfected, knockout and antagonist-cotreated HEK293 cells; type: cell-based, human; settings: for pERK, nontransfected HEK293: concentration not given; for pERK-stimulating effect with 100 nM atipamezole cotreatment / pERK-stimulating effect with 100 nM prazosin cotreatment: HEK293; for pERK-stimulating effect with 100 nM prazosin cotreatment: CLON and ISO 1 μM, mitragynine 1 μM
Description: (§3) Cells were serum-starved for 75 min and treated with ligands in 1 mL of fresh DMEM in the absence of serum as described in the figure legends. Cells were washed three times with ice-cold phosphate-buffered saline, lysed on ice in Radio-Immunoprecipitation Assay buffer, centrifuged to clarify the supernatant, normalized to protein concentration, and boiled in Laemmli sample buffer. Following sodium dodecyl sulfate–polyacrylamide gel electrophoresis, gels were transferred, blocked in 5% BSA and incubated with 1:1000 rabbit phospho-ERK1/2 (#9101, Cell Signaling Technology, Danvers, MA) and imaged with enhanced chemiluminescence (ECL). Blots were stripped and reprobed with rabbit ERK1/2 (#9102, Cell Signaling Technology) antibody and imaged with ECL to assess protein loading.

α2AR [5] = target: T8, α2AR; settings: α2AR-expressing CHO-K1 cells
α2AR [6] = target: T8, α2AR; assay: cell-based
rat α2AR [7] = target: T11, rat α2AR (Rattus norvegicus, UniProt P22909); settings: agonist mode; CHO-K1 cells
T11 sequence (P22909 1-465): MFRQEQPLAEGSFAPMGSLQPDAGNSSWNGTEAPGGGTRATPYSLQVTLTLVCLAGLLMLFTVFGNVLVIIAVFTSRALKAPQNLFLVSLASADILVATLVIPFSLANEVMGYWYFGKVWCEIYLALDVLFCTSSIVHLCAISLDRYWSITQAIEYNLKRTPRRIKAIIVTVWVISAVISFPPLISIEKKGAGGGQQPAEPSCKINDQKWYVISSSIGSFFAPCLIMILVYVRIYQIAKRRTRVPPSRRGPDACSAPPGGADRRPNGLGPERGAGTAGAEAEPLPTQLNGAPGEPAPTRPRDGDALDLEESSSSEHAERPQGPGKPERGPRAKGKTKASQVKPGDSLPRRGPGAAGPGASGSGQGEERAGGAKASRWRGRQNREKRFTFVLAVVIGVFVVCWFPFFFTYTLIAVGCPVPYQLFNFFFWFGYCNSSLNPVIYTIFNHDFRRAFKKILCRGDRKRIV

α1A and α1BR = settings: read-out: EC50, α1A and α1BR-pERK; a recent report; cited from earlier work
α1AR [8] = target: T7, α1AR; assay: cell-based
rat α2AR [9] = target: T11, rat α2AR; settings: agonist mode; HEK293 cells; Figure S2
α2AR [10] = target: T8, α2AR; settings: agonist mode; CHO-K1 cells
α2AR [11] = target: T8, α2AR; settings: data not shown
[12] = tested on: pERK in HEK293 cells transfected with human α2ARs; assay: ERK phosphorylation in α2AR-transfected HEK293 cells; type: cell-based; settings: 1 μM, 5 min
Description: as §3

[13] = HEK293, read-out: Emax as percent of clonidine's maximum response, α11
[14] = HEK293, read-out: Emax as percent of clonidine's maximum response, αq

T1 sequence (P35372 whole entry): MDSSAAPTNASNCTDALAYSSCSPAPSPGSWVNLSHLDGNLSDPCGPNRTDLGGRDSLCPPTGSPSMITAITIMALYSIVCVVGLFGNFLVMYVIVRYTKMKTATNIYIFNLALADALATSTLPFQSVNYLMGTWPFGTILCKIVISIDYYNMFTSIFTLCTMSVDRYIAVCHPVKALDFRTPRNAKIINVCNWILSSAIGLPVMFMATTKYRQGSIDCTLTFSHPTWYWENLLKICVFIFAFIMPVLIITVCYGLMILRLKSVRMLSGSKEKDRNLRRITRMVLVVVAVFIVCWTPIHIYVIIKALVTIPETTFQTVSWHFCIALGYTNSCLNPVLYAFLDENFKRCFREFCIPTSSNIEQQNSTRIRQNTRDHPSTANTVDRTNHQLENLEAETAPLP

CC[C@@H]1CN2CC[C@@]3(O)C(=Nc4cccc(OC)c43)[C@@H]2C[C@@H]1/C(=C\OC)C(=O)OC [7-Hydroxymitragynine]
Inhibition of radioligand binding, μ-opioid receptors (μ-opioid receptors): more than 50% | Inhibition of specific radioligand binding, α2B (α2BR): less than 15% | Inhibition of radioligand binding, κ-opioid receptors (κ-opioid receptors): more than 50% | Inhibition of radioligand binding, δ-opioid receptors (δ-opioid receptors): more than 50% | Inhibition of specific radioligand binding, α1D (α1DR): less than 15% | Inhibition of specific radioligand binding, α1B (α1BR): less than 15% | Inhibition of the activity of enzymes tested (any enzyme tested): did not inhibit the activity of any enzyme tested | Inhibition of specific radioligand binding, α1A (α1AR [1]): less than 15% | Inhibition of specific radioligand binding, α2A (α2AR [2]): less than 15%

CC[C@@H]1CN2CCc3c([nH]c4cccc(O)c34)[C@@H]2C[C@@H]1/C(=C\OC)C(=O)OC [9-Hydroxycorynantheidine]
Inhibition of COX2 (COX2): > 70% | Inhibition of radioligand binding, serotonin transporter (serotonin transporter): ~58% | Inhibition of specific radioligand binding, α2B (α2BR): less than 25% | Inhibition of specific radioligand binding, α1D (α1DR): more than 60% | Inhibition of radioligand binding, voltage-gated sodium channels [3]: ~57% | Inhibition of specific radioligand binding, α1A (α1AR [1]): more than 60% | Inhibition of specific radioligand binding, α2A (α2AR [2]): less than 25%

COc1cc2nc(N3CCN(C(=O)c4ccco4)CC3)nc(N)c2cc1OC [Prazosin, prazosin]
Kd (human α2Rs; read-out: Affinity (Kd) at each of the human α2Rs): ≥ 300 nM | Kd (β1 and β2 adrenoceptors): ≥ 8000 nM | Affinity (Kd) at each of the α1Rs (human α1Rs): single-digit nM or higher affinity

Brc1c(NC2=NCCN2)ccc2nccnc12 [UK 14, 304 (brimonidine), brimonidine, reference compound]
pERK, nontransfected HEK293 [4]: did not increase pERK | β-arrestin2 recruitment, agonist mode (α2AR [5]): robust α2AR-β-arrestin2 recruitment

CCC1(c2cnc[nH]2)Cc2ccccc2C1 [atipamezole]
Affinity (Kd) at each of the human α2Rs (human α2Rs): double-digit nM | Kd (β1 and β2 adrenoceptors): > 30000 nM | Kb (α2AR [6]): 6.92 nM | Kd (human α1Rs; read-out: Affinity (Kd) at each of the α1Rs): ≥ 1000 nM | β-arrestin2 recruitment, agonist mode (α2AR [5]): did not recruit β-arrestin2

Clc1cccc(Cl)c1N=C1NCCN1 [clonidine]
pERK-stimulating effect in Gαq/11 knockout HEK293 cells ([4]; 1 μM, 5 min, vs CRISPR scrambled): abolished | pERK-stimulating effect with 100 nM atipamezole cotreatment [4]: did not affect | pERK-stimulating effect with 100 nM prazosin cotreatment [4]: abolished | Effect on forskolin-stimulated cAMP, rat α2AR (rat α2AR [7]): agonist | EC50 (α1A and α1BR): < 100 nM | Emax (α1AR [8]; [13]): 100% | Emax (α1AR [8]; [14]): 100% | Effect on forskolin-induced cAMP, rat α2AR in HEK293 (rat α2AR [9]): attenuated forskolin-induced cAMP production | Effect on forskolin-stimulated cAMP, human α2AR (α2AR [10]): decreased forskolin-stimulated cAMP production | Activation of Gαq or Gα11 via α2ARs (α2AR [11]): no effect

CNC[C@H](O)c1ccc(O)c(O)c1 [epinephrine]
Emax (α1AR [8]; [13]): 279%

CC(C)NCC(O)c1ccc(O)c(O)c1 (stereo not shown) [isoproterenol]
pERK relative to buffer, nontransfected HEK293 ([4]; 1 μM, 5 min): stimulated pERK | pERK-stimulating effect with 100 nM atipamezole cotreatment [4]: not affected | pERK-stimulating effect with 100 nM prazosin cotreatment [4]: not affected | pERK relative to buffer, α2AR-transfected HEK293 [12]: significantly increased pERK

CC(Oc1c(Cl)cccc1Cl)C1=NCCN1 (stereo not shown) [lofexidine]
EC50 (α1AR [8]; EC50, α11, α1AR-Gα11): 112 nM | EC50 (α1AR [8]; EC50, αq, α1AR-Gαq): 95.5 nM | Emax (α1AR [8]; [13]): 76% | Emax (α1AR [8]; [14]): 84%

CNC[C@H](O)c1cccc(O)c1 [phenylephrine]
pERK, nontransfected HEK293 [4]: robust increases in pERK
